Several values for one entry are separate records, joined by “and”; a condition that tells them apart may be missing. Equal values may be shown once. Read-outs that look alike come from different tables or passages of the source.
Tests used:
uninfected PBMCs = assay type: cell-based; settings: human
Experimental: FIG. 4. Inhibition of HIV-1 replication by compounds disclosed herein in PBMCs. Donor PBMCs were infected with HIV-1 in the presence of inhibitor concentrations ranging from 1 to 1,000 nM or the DMSO carrier solvent as a negative control (0.1% DMSO final). Replication was assessed by p24 Gag AlphaLISA (Perkin Elmer) […]. Each donor was also infected with Nef-defective HIV-1 to establish the baseline for Nef-dependent enhancement of replication in each culture. Cytotoxicity was assessed in uninfected PBMCs over the same incubation period using the CellTiter-Blue assay (Promega). Data were fit by non-linear regression analysis (GraphPad Prism v.7.04) to determine the IC50 and CC50 values shown.
Non-HLA-typed buffy coats (Source: Pittsburgh Central Blood Bank, #E3755) are received and processed within 24 hours of blood donation. PBMCs are isolated via rocking for RBC separation following 1:1 dilution with PBS, followed by Ficoll gradient centrifugation. The lymphocyte fraction is removed and washed several times for a final concentration of ˜150-300×10^6 cells per donor. Cells are activated for 3 days with 1-5 μg/mL PHA (Sigma) and 50 U/mL IL-2. Cells are plated at 750,000 cells/ml and viability is checked at day 3 using the Cell Titer Blue assay (Promega). If cells are >90% viable, then they are infected with HIV-1 NL4-3, wild-type or Δ-Nef mutant (input typically 30-500 pg/mL p24 capsid equivalents) in the presence or absence of Nef inhibitor analogs. IL-2 is included in the media at the time of infection. After 4 days, cells are lysed with 1% Triton X-100 for 1.5 h, checked for viability via Cell Titer Blue, and frozen/stored at −20° C. HIV-1 replication is assessed with a high-sensitivity HIV-1 p24 AlphaLISA assay (Perkin Elmer) in ½-volume 96-well plates, using one-half of the recommended assay volumes for all reagents (including samples). Assays are read on the BioTek Cytation5 instrument; readout is in AlphaUnits and replication in p24 pg/mL is determined using an HIV-1 p24 capsid protein standard included in the Alpha kit.

HIV-1NL4-3 = assay: HIV-1 infectivity assay in TZM-bl reporter cell line (LTR-luciferase, 48 h); assay type: cell-based; settings: for inhibition at 1 µM: Human immunodeficiency virus 1, TZM-bl
Procedure, shortened: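 Compounds were tested at 1 μM in TZM-bl cells infected with HIV-1NL4-3. Infectivity was read as luciferase signal 48 h after infection and expressed as percent inhibition, normalized between DMSO-treated wild-type infection (0%) and DMSO-treated Nef-defective HIV-1 infection (100% of the Nef-dependent effect).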

HIV-1 NL4-3 = assay: HIV-1 replication in normal donor PBMCs (p24 Gag AlphaLISA); assay type: cell-based; settings: Table 1, 4 days, words (Not active, Borderline) where no bound is given
Procedure, shortened: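 PHA/IL-2-activated donor PBMCs infected with HIV-1 NL4-3, wild-type or Δ-Nef, with inhibitor (1–1,000 nM, 0.1% DMSO) in IL-2 medium. Lysates taken after 4 days and p24 quantified by AlphaLISA against a p24 standard; IC50 by non-linear regression, CC50 by CellTiter-Blue in uninfected cells.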

HIV-1 NefNL4-3 = HIV-1 NefNL4-3 (Human immunodeficiency virus type 1 group M subtype B, UniProt P03406, A33V/T15A/T51N/V11I); assay: Surface plasmon resonance binding to recombinant full-length Nef (NL4-3); settings: for Nef NL4-3 Binding, SPR 1:1 or 2-site fitting KD1: 1:1 Langmuir fit where the KD2 cell says '1 to 1 fitting', else 2-site fit; for RU30/RUNef (extent of binding): response units at 30 μM relative to Nef immobilized on the SPR chip
HIV-1 Nef SF2 = molecular target: T1, HIV-1 Nef SF2 (Human immunodeficiency virus type 1 group M subtype B, UniProt P03407); assay: biochemical; assay type: binding; settings: two-step induced-fit model, Reichert SPR, read-out: Reichert SPR Nef SF2 (M) two-step fitting
T1 construct: made in house

TZM-bl cell line = assay type: cell-based; settings: human, 1 μM
Procedure, shortened: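 TZM-bl cells (HIV-1 LTR-luciferase) infected with HIV-1NL4-3 with compound at 1 μM; luciferase read 48 h later. Percent inhibition normalized to DMSO wild-type infection (0%) and Nef-defective HIV-1 infection (100% of Nef-dependent effect). Viability in uninfected TZM-bl cells by Cell Titer Blue.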

[1] = molecular target: Nef from SIV (strain mac239) (Simian immunodeficiency virus, UniProt Q5QGG3); assay: biochemical
Experimental: Also shown are SPR data recorded on a Reichert 4-channel SPR instrument. […] Recombinant Nef is immobilized on the biosensor surface, and each compound is injected and association/dissociation kinetics are recorded. The resulting data for the 3 isoforms are each best-fit using both a two-site model and a two-step, induced-fit model. Dissociation constants (KD), calculated from the kinetic association and dissociation constants from all three isoforms, are shown in columns 6-7. Data were fit using three regimes and the resulting KD: from each model are shown in the Table: 1:1 Langmuir fit; 2-site fit, which yields low and high affinity components; and a 2-step induced fit model.

[2] = 1.0 μM, TZM-bl reporter cell line, Table 4, read-out: % Infectivity Inhibition
[3] = 1 μM, TZM-bl, normalized: DMSO wild-type HIV-1 = 0%, Nef-defective HIV-1 = 100%, read-out: HIV-1 Infectivity % Inhibition norm. to Δ-Nef @ 1 μM
[4] = KD, M, Table 4, SPR fit 2-step induced fit, KD = koff/kon × koff2/(koff2 + kon2)
[5] = Nef NL4-3 Binding, SPR 2-state fitting KD, Table 1, 2-step induced-fit model
[6] = Reichert SPR Nef NL43 (M) two-step fitting, KD, two-step induced-fit model, Reichert SPR, Table 3
[7] = Table 4, 2-step induced fit, T = 1/koff2
[8] = read-out: Nef NL4-3 Binding, SPR 1:1 or 2-site fitting KD2, Table 1, 2-site fit, second component
[9] = 48 h, Table 1, TZM-bl cells, 1 μM, 48 h, 100% = Nef-defective HIV-1, read-out: HIV-1 Infectivity % Inhibition Norm. to Δ-Nef @ 1 μM
[10] = KD, M, Table 4, SPR fit 1:1 Langmuir, KD = koff/kon
[11] = Table 4, 1:1 Langmuir fit, T = 1/koff

Row | Structure (SMILES) | Toxicity in HIV Replication PBMC (Toxic @ concentration) (uninfected PBMCs) | inhibition at 1 µM (HIV-1NL4-3; [2]) [%] | inhibition at 1 µM (HIV-1NL4-3; [3]) [%] | Kd (HIV-1 NefNL4-3) [M] | Kd (HIV-1 NefNL4-3; [4]) [M] | Kd (HIV-1 NefNL4-3; [5]) | Kd (HIV-1 NefNL4-3; [6]) [M] | T, minutes (residence time) (HIV-1 NefNL4-3; [7]) | Kd (HIV-1 NefNL4-3; [8]) [M] | RU30/RUNef (extent of binding) (HIV-1 NefNL4-3) | Kd (HIV-1 Nef SF2) [M] | % Cell Viability (TZM-bl cell line) [%] | Toxicity % Viability @ 1 μM (TZM-bl) (TZM-bl cell line) [%] | Kd [1] [nM] | inhibition at 1 µM (HIV-1NL4-3; [9]) [%] | HIV Replication PBMC IC50 vs. HIV NL4-3 (HIV-1 NL4-3) | Percent Viability @ 1 μM (TZM-bl cells) (TZM-bl cell line) [%] | further results
1 | Oc1c(CCc2ccncc2)c(-c2ccc(C(F)(F)F)cc2)nn1-c1nc2ccccc2[nH]1 [Compound I-101, 1-(1H-1,3-benzodiazol-2-yl)-4-[2-(pyridin-4-yl)ethyl]-3-[4-(trifluoromethyl)phenyl]-1H-pyrazol-5-ol] | Toxic @ 1 μM | 100 | 128 | 1.77e-06 | 2.91e-10 | 2.91e-10 M | 2.91e-10 | 7.00E + 04 minutes | 1.47e-05 | 1.33E- 02 | 1.43e-10 | 76.3 | 76.3 | 25.4 | – | – | – | HIV-1 Infectivity % Inhibition Norm. to Δ-Nef @ 1 μM (HIV-1NL4-3; Table 1, TZM-bl cells, 1 μM, 48 h, 100% = Nef-defective HIV-1): 78.5%; IC50 (HIV-1 NL4-3; Human immunodeficiency virus 1, NL43, PBMC, 96 h): ≤ 1 nM; Nef NL4-3 Binding, SPR 1:1 or 2-site fitting KD1 (HIV-1 NefNL4-3; Table 1): No Interaction
2 | CC(C)COC(=O)N1CCC(c2nn(-c3nc4ccccc4[nH]3)c(O)c2CCc2ccc(F)cc2)CC1 [Compound I-721, 2-methylpropyl 4-[1-(1H-1,3-benzodiazol-2-yl)-4-[2-(4-fluorophenyl)ethyl]-5-hydroxy-1H-pyrazol-3-yl]piperidine-1-carboxylate] | Toxic @ 10 nM | 100 | 120 | 2.24e-07 | 3.72e-05 | 3.72e-05 M | 3.72e-05 | 4.69E + 02 minutes | 1.76e-06 | 1.20E- 02 | 5.88e-06 | 84.3 | – | 82.6 | 120 | Borderline | 84.3 | –
3 | CC(C)(C)OC(=O)N1CCC(CCc2c(-c3ccc(S(C)(=O)=O)cc3)nn(-c3nc4ccccc4[nH]3)c2O)CC1 [Compound I-201, tert-butyl 4-{2-[1-(1H-1,3-benzodiazol-2-yl)-5-hydroxy-3-(4-methanesulfonylphenyl)-1H-pyrazol-4-yl]ethyl}piperidine-1-carboxylate] | Toxic @ 1 μM | 53.4 | 53.4 | – | 3.94e-07 | 3.94e-07 M and 1.93e-06 M | 3.94e-07 | 2.62E + 01 minutes | – | 1.83E- 02 | 5.01e-07 | 70.5 | 70.5 | 23.8 | – | Not active | – | –
4 | Oc1c(CCc2ccc(F)cc2)c(-c2ccc(C(F)(F)F)cc2)nn1-c1nc2ccncc2[nH]1 [Compound I-309, 4-[2-(4-fluorophenyl)ethyl]-1-{3H-imidazo[4,5-c]pyridin-2-yl}-3-[4-(trifluoromethyl)phenyl]-1H-pyrazol-5-ol] | Toxic @ 1 μM | 92.2 | – | 5.76e-10 | – | – | – | – | – | 1.59E- 03 | – | 99.1 | – | – | 92.2 | Not active | 99.1 | Kd (HIV-1 NefNL4-3; [10]): 5.76e-10 M; T, minutes (residence time) (HIV-1 NefNL4-3; [11]): 1.78E + 04 minutes
5 | CC(C)OC(=O)N1CCC(c2nn(-c3nc4cc(Cl)ccc4[nH]3)c(O)c2CCC2CCOCC2)CC1 [Compound I-701, propan-2-yl4-[1-(5-chloro-1H-1,3-benzodiazol-2-yl)-5-hydroxy-4-[2-(oxan-4-yl)ethy1]-1H-pyrazol-3-yl]piperidine-1-carboxylate] | Toxic @ 10 nM | 100 | 106 | 2.64e-08 | 2.88e-06 | 2.88e-06 M | 2.88e-06 | 4.73E + 00 minutes | 4.02e-06 | 5.85E- 03 | 1.37e-07 | 98.7 | – | 19300 | 106 | – | 98.7 | –
6 | O=C(OCc1ccccc1)N1CCC(Cc2c(-c3ccc(C(F)(F)F)cc3)nn(-c3nc4ccccc4[nH]3)c2O)CC1 [Compound I-162, benzyl 4-{[1-(1H-1,3-benzodiazol-2-yl)-5-hydroxy-3-[4-(trifluoromethyl)phenyl]-1H-pyrazol-4-yl]methyl}piperidine-1-carboxylate] | Toxic @ 1 μM | 77.5 | – | 1.86e-09 | – | – | – | – | – | 4.69E- 03 | – | 90.8 | – | – | – | Not active | – | Kd (HIV-1 NefNL4-3; [10]): 1.86e-09 M; Nef NL4-3 Binding, SPR 1:1 or 2-site fitting KD1 (HIV-1 NefNL4-3; Table 1): No Interaction; T, minutes (residence time) (HIV-1 NefNL4-3; [11]): 8.05E + 03 minutes
7 | Oc1c(CCc2ccc(F)cc2)c(-c2ccc(C(F)(F)F)cc2)nn1-c1nc2cccnc2[nH]1 [Compound I-301, 4-[2-(4-fluorophenyl)ethyl]-1-{1H-imidazo[4,5-b]pyridin-2-yl}-3-[4-(trifluoromethyl)phenyl]-1H-pyrazol-5-ol] | Toxic @ 1 μM | 81.2 | 81.2 | – | 6e-11 | – | 6e-11 | – | – | 1.34E- 02 | 3.69e-08 | 90.7 | 90.7 | 1.74 | – | – | – | Kd (HIV-1 NefNL4-3; Nef NL4-3 Binding, SPR 1:1 or 2-site fitting KD2, Table 1, 2-site fit, second component): 2.31e-05 M

From patent publication US20220380341A1, “INHIBITORS OF HIV-1 NEF FOR THE TREATMENT OF HIV DISEASE” (priority 2018, published 2022)
